Test [1] has as its system Ishikawa. The test is described as follows: Potentiation of tamoxifen-induced antiestrogenic activity in human Ishikawa cells assessed as decrease in tamoxifen IC50 at 2 ug/ml after 4 days by ELISA. It is filed as functional, cell-based. (ELISA stands for enzyme-linked immunosorbent assay.)
Test [2] has as its target Anti-estrogen binding site (Rattus norvegicus). The test is described as follows: Displacement of [3H]tamoxifen from antiestrogen binding site in Sprague-Dawley rat liver by liquid scintillation counting. A general note: Displacement assays read how much labelled ligand stays bound in the presence of the test substance.
Test [3] relates to Ishikawa. The test is described as follows: Antiestrogenic activity in human Ishikawa cells assessed as inhibition of estrogen-induced alkaline phosphatase activity after 4 days by ELISA. The note with it: 96 h.
In test [4] the test system is Ishikawa. The test is described as follows: Potentiation of tamoxifen-induced antiestrogenic activity in human Ishikawa cells assessed as decrease in tamoxifen IC50 at 1 ug/ml after 4 days by ELISA. It is filed as functional, cell-based.

The IC50 is the point on the concentration scale where inhibition reaches its midpoint.

The source made the active and inactive calls. The calls are words filed in the database; no cut-off is given here.

With `C[C@@H]([C@H]1CC[C@H]2[C@@H]3CC[C@H]4C[C@]5(CC[C@]4(C)[C@H]3CC[C@]12C)c1ccccc1C(=O)N5C)N(C)C`, the outcome in the test on Ishikawa [1] was Active. In test [2], this compound yielded a concentration for half-maximal inhibition (IC50) of 7400 nM.

In the case of `CO[C@H]1CC[C@@]2(C)C(=CC[C@H]3[C@@H]4CC[C@H]([C@H](C)N(C)C)[C@@]4(C)CC[C@@H]32)C1`, the outcome in the test with Ishikawa [1] was Active. In test [2], this compound had an IC50 of 400 nM.

Regarding `CC/C(=C(\c1ccccc1)c1ccc(OCCN(C)C)cc1)c1ccccc1` [TAMOXIFEN], the half-inhibitory concentration (IC50) with Ishikawa [3] was 420 nM.

In the case of `CC(C)=CC(=O)N(C)[C@@H]1CC[C@@]2(C)[C@@H](CC[C@@H]3[C@@H]2CC[C@]2(C)[C@@H]([C@H](C)N(C)C)CC[C@@H]32)C1` [(+)-PACHYSAMINE B], in test [2], the IC50 was 600 nM. In the test on Ishikawa [4], the result was Active.

Consider `CC(C)[C@@H]1CN(C2=CC[C@@]3(C)[C@@H](CC[C@@H]4[C@@H]3CC[C@]3(C)[C@@H]([C@H](C)N(C)C)[C@@H](O)C[C@@H]43)C2=O)C1=O`, for which the result in the test with Ishikawa [1] was Active. In addition, in test [2], the IC50 worked out at 3500 nM.

On to `CC(C)[C@@H]1CN(C2=CC[C@@]3(C)[C@@H](CC[C@@H]4[C@@H]3CC[C@]3(C)[C@@H]([C@H](C)N(C)C)CC[C@@H]43)C2=O)C1=O`, for which, in the test with Ishikawa [1], the result was Active.

For `C[C@@H]([C@H]1CC[C@H]2[C@@H]3CC[C@H]4C(=O)C(NC(=O)c5ccccc5)=CC[C@]4(C)[C@H]3CC[C@]12C)N(C)C`, the result with Ishikawa [1] was Active. The same compound displayed an IC50 in test [2] of 8000 nM.

Regarding `C[C@@H]([C@H]1CC[C@H]2[C@@H]3CC[C@H]4C[C@@H](NC(=O)c5ccccc5)CC[C@]4(C)[C@H]3CC[C@]12C)N(C)C` [EPIPACHYSAMINE D], the result with Ishikawa [1] was Active. In test [2], this compound registered an IC50 of over 20000 nM.

In the case of `CC(=O)O[C@H]1[C@@H](N2C(=O)c3ccccc3C2=O)[C@H](O)C[C@]2(C)[C@H]3CC[C@]4(C)[C@@H]([C@H](C)N(C)C)CC[C@H]4[C@@H]3CC[C@@H]12`, the outcome in the test on Ishikawa [1] was Active.

`CC(=O)O[C@H]1C(NC(=O)c2ccccc2)=CC[C@]2(C)[C@H]3CC[C@]4(C)[C@@H]([C@H](C)N(C)C)CC[C@H]4[C@@H]3CC[C@@H]12` showed a concentration for half-maximal inhibition (IC50) in test [2] of 600 nM. Further, the result with Ishikawa [4] was Active.

The values above are taken from ChEMBL document CHEMBL1150962, “Activity-guided isolation of steroidal alkaloid antiestrogen-binding site inhibitors from Pachysandra procumbens” (J Nat Prod, 1998).
